Experimental data reported in US20120329879A1, “BETA-ADRENERGIC RECEPTOR AGONISTS AND USES THEREOF” (THE UNIVERSITY OF TENNESSEE RESEARCH FOUNDATION, priority 2010, published 2012).
Entries after “also recorded” stand apart in the source; their conditions may differ.

Legend:
[1] = Plasma levels of Compound 2 after intravenous or topical administration to rats (LC/MS/MS); type: in vivo; conditions: rat
Protocol: B/PK was characterized following intravenous administration to rats. Following drug administration, blood samples (2-300 μL) were withdrawn from the jugular vein catheter at regular intervals after dosing (5, 15, 30, 45 minutes and 1, 2, 4, 8, 16, and 24 hours) into K3-EDTA anti-coagulated sampling tubes. Plasma was obtained by centrifugation and stored at −80° C. until analysis. The heart, lung and spleen were harvested in order to determine the tissue distribution of Compound 2. Cumulative urinary samples were collected over 24 hours post-dose and stored at −80° C. until analysis. B/PK was characterized following topical administration. Following drug administration to rats, eyes were enucleated, irrigated with saline, and vitreous humor aspirated from the inner region of the vitreous chamber using an 18-gauge needle. Blood samples were obtained simultaneously in order to determine the extent of systemic exposure following topical administration. Vitreous humor and blood samples were obtained at regular intervals after dosing. Time points were determined based upon concentration time profiles obtained following intravenous administration of Compound 2. For data analyses B/PK parameters were derived from the obtained plasma, vitreous humor, urine and feces concentration data by standard non-compartmental analysis. Terminal half-life was determined as the ratio of ln 2 divided by λz, the negative of the slope of the linear regression of the natural log concentration vs. time profile during the terminal phase. Systemic and ocular exposure was determined as plasma or ocular area under the concentration-time curve (AUC) using the trapezoidal rule. Compound 2 concentration determination and metabolite profiling is conducted using a validated LC/MS/MS assay based on the methodology described (14-15). The LC-MS/MS system comprises a Shimadzu HPLC system (Kyoto, Japan), API-4000 Q Trap tandem mass spectrometer (Foster City, Calif., USA) equipped with a turbo ion-spray and a HTC-PAL autosampler (Leap Technologies, Carrboro, N.C., USA).

[2] = system: Human retinal endothelial cells (HREC); assay: TNFalpha and cleaved caspase 3 ELISA in retinal endothelial cells cultured in high glucose; type: cell-based; conditions: 50 nM
Protocol: Human retinal endothelial cells (HREC) were purchased from Cell Systems (Kirkland, Wash.) and grown in either basal (5 mM glucose) or growth (25 mM glucose) media. Both media is supplemented with 10% FBS and antibiotics. The day prior to experiments, cells are serum-starved for 18-24 hours. Rat Müller cells (rMC-1) were grown in DMEM medium with 5 mM glucose or 25 mM glucose. Media was supplemented with 10% FBS and antibiotics. Cells were serum starved prior to all experiments for 18-24 hours.
Human retinal endothelial cells (HREC) and rat Muller cells (rMC-1) in both glucose conditions were treated with Compound 2 at doses of 10 nM, 50 nM, 100 nM, 1 μM, and 10 μM of Compound 2. Cells of each type were grown in medium containing L-glucose to control for changes in osmolarity. 10 μM isoproterenol was also used for each condition as a positive control. Müller cells were treated for 1 hour and 24 hours, while HREC were treated for 30 and 60 minutes.
Following treatment, cells were collected into lysis buffer containing protease and phosphatase inhibitors. ELISA analyses for TNFalpha, cleaved caspase 3, and PKA were done according to manufacturers instructions. Data is compared against non-treated cells and cells at the various doses. A Kruskal-Wallis test is done, with a Dunn's test for secondary analyses. […] The dose that decreases TNFalpha and caspase 3 levels also increases PKA activity.

[3] = Body weight, blood glucose, blood pressure and intraocular pressure in streptozotocin diabetic rats on eye drop therapy; type: in vivo, rat
Protocol: Male Lewis rats purchased from Charles River were used. Diabetic rats received a single injection of 60 mg/kg streptozotocin (Fisher, Pittsburgh, Pa.). […] All rats were weighed weekly and only rats with non-fasting blood glucose levels >250 mg/dl were considered diabetic. The designation of diabetic was made at the beginning of the experiments. Glucose was measured bimonthly. No insulin was administered to the rats at any time. To determine whether topical application of Compound 2 could reach the retina and elicit response, dose and time course studies were performed. For those studies, animals were made diabetic for 2 months using STZ. For 4 days, rats received a variety of doses of either Compound 2 (1 mM to 20 mM) or PBS once or twice each day. After the 4 days of eye drop treatment to both eyes, the diabetic and control animals were euthanized. […] After determining the optimal dose and time course for eye drop treatment for Compound 2, three groups of rats were used for this part of the study (control, diabetic (Diabetic), and diabetic+eye drop (Diab+2). Within 1 week of STZ-injection, 12 rats were put onto eye drop therapy. Rats on the eye drop therapy received a daily application of 4 drops of 1 mM Compound 2 to each eye. To verify that insulin levels were lost in the diabetic animals, insulin ELISA (Rat/Mouse Insulin ELISA kit, Linco, St. Charles, Mo.) was done on blood sampled from all rats at 2 months of age. Rats were sacrificed at 2 or 8 months of age. […] Analyses on the rats were done for acute changes (8 weeks of diabetes, 45 rats) and chronic changes (8 months of diabetes, 45 rats). […] Each month, all rats were tested for visual function: electroretinogram (ERG) and live retinal imaging were performed using Optical Coherence Topography (OCT). […] While the animals were asleep for ERG analyses, blood pressure and pulse were monitored to detect potential negative cardiovascular events.

[4] = system: retina of diabetic rats; assay: Assessment of retinal thinning and loss of cells in ganglion cell layer; type: in vivo, rat
Text: Assessment of retinal thinning and loss of cells in ganglion cell layer Formalin-fixed paraffin sections were stained with toluidine blue for light microscopy and morphometry of retinal thickness (8). Pictures were taken at four locations in the retina (both sides of the optic nerve and mid-retina) at 400×. The nuclei in the retinal ganglion cell layer (GCL) were counted in a […] section of each picture, and the thickness of the inner retina (from the top of the inner nuclear layer to the inner limiting membrane) was assessed using a Retiga camera attached to a Nikon Biophot light microscope with Qcapture software (Qlmaging, Burbay, BC, Canada). Retinal thickness and number of cells in the ganglion cell layer were measured using OpenLab software (Improvision, Lexington, Mass.). Retinal thickness and live retinal imaging were assessed using rodent OCT. Each layer of the retina was examined multiple times on the same animal in a non-invasive way to determine changing in specific regions over the course of the experiment. […] Light microscopy was used for histological examination of neuronal changes, which often occur in the acute phases. Formalin-fixed paraffin sections were stained with toluidine blue for light microscopy and morphometry of retinal thickness. Pictures were taken at four locations in the retina (both sides of the optic nerve and mid-retina) at 400×. The nuclei in the retinal ganglion cell layer (GCL) were counted in a 100 μm section of each picture. The thickness of the inner retina from the top of the inner nuclear layer to the inner limiting membrane was assessed using a Retiga camera attached to a Nikon Biophot light microscope with Qcapture software (Qlmaging, Burbay, BC, Canada). Retinal thickness and number of cells in the retinal ganglion cell layer were measured using OpenLab software (Improvision, Lexington, Mass.). Unpaired T-tests were used to compare data from control, diabetic, and diabetic+eye drop treated animals, with P<0.05 being accepted as significant.

[5] = diabetic rats, daily 1 mM Compound 2 eye drops, in mmHg (unit assumed)
[6] = following Compound 2 treatment, in words
[7] = delayed treatment: 6 month diabetic rats, Compound 2 for 2 months
[8] = diabetic rats, 1 mM eye drops as preventative, central retina, hydrochloride

COc1cc(CCNC[C@H](O)c2ccc(O)c(O)c2)cc(OC)c1OC.Cl (single isomer, unassigned) [Compound 2, 4-[1-hydroxy-2-(1-ethylamino-3-,4-,5-trimethoxyphenyl)ethyl]benzene-1,2-diol hydrochloride]
concentration at 45 min ([1]; Lewis, plasma, over 45 minutes, dose and route not stated): ~6 ng/mL | concentration at 1 h ([1]; plasma, intravenous or topical, 10 mg/kg, limit of detection, read-out: plasma level after 1 hour): < 2.5 ng/mL | time of clearance from plasma ([1]; intravenous, 1 mg/kg): < 1 h | plasma concentration ([1]; intravenous, 10 mg/kg): ~1000 ng/mL | time of clearing from plasma ([1]; intravenous, 10 mg/kg): ≤ 30 min | plasma concentration at the 2 time points with detection ([1]; topical, 10 mg/kg): ~80 ng/mL | detection in plasma after topical delivery ([1]; topical, therapeutic dose 1 mM or 1 mg/kg, hydrochloride): did not result in detectable Compound 2 in plasma; also recorded: below the limits of detection; also recorded: not detected | Plasma concentration at start of decline ([1]; dose and route not stated): about 100 ng/ml | reduction of TNFalpha levels versus not-treated controls ([2]; REC in 25 mM glucose): 23% | reduction of caspase 3 levels versus not-treated controls ([2]; REC in 25 mM glucose): 54% | TNFalpha levels, in words ([2]; REC in high glucose, vs non-treated): significantly reduced | cleaved caspase 3 levels, in words ([2]; REC in high glucose, vs non-treated, hydrochloride): significantly decreased caspase 3 levels; also recorded: significantly reduced levels of cleaved caspase 3 | effect on body weight ([3]; daily administration of 1 mM, in words): did not affect | Body wt ([3]; diabetic rats, daily 1 mM Compound 2 eye drops): 248.7 ± 8.3 g | BP Systolic [3, 5]: 104.8 ± 13.7 | IOP [3, 5]: 8.08 ± 1.17 | effect on blood pressure [3, 6]: no observed effect | effect on intraocular pressure [3, 6]: no observed effect | increase in retinal thickness over diabetic rats alone [4, 7]: ~50% | loss of cells in the ganglion cell layer, delayed treatment [4, 7]: no loss of cells in the ganglion cell layer | inner retinal thickness [4, 8]: loss of inner retinal thickness was prevented; also recorded: maintains the retinal thickness | number of cells in the ganglion cell layer [4, 8]: prevented in the Compound 2-treated animals; also recorded: maintains the retinal thickness and cell number | loss of retinal thickness and apoptosis of cells of the ganglion cell layer ([4]; diabetic rats, 50 mM eye drops 1 time each day for 8 months): effective in preventing the loss of retinal thickness and apoptosis of cells of the ganglion cell layer
